Experiments:
[1] = test system: human retinal endothelial cells (HRECs); assay: Serum depletion-induced apoptosis of HRECs, MTT assay and cell morphology; type: cell-based; details: for ability of inhibiting apoptosis (MTT assay): 48 hours after treatment; for ability of protecting retinal vascular endothelial cells from apoptosis induced by the removal of serum (MTT): serum-free medium, 0.1-10 μg/mL
Experimental: HRECs (3×10^4 cells/well) were seeded on a 24-well plate in M199 medium containing 20% fetal bovine serum. The next day, the cells were transferred to a medium containing […] Sac0601 (FIG. 4a) or 0.1-10 μg/mL Sac0504 (FIG. 4b). Cell viability was determined by MTT assay 48 hours later. FIGS. 5a-5c show the result of observing cell morphologies.
Human umbilical vein endothelial cells (HUVECs) and human retinal endothelial cells (HRECs) purchased from Cell Systems (USA) were seeded on a 100-mm culture dish in M199 medium (Life Technologies, USA) containing 20% (w/v) fetal bovine serum (FBS, HyClone, Canada), 100 units/mL penicillin (Invitrogen, USA), 100 μg/mL streptomycin (invitrogen, USA), 3 ng/mL basic fibroblast growth factor (bFGF, Upstate Biotechnology, USA) and 5 units/mL heparin and cultured in a 5% CO2 incubator at 37° C.
Also, HRECs were treated with the compounds synthesized in Synthesis Example 5 and MIT assay was performed 48 hours later in the same manner as described above.
Also, the acid compound wherein the methyl ester formed by the introduction of the ester group was hydrolyzed was synthesized to provide improved water solubility and activity. MYT assay was performed for the compounds synthesized in Synthesis Example 6 in the same manner as described above 48 hours after treatment.
Their ability of inhibiting apoptosis was confirmed again for HRECs. HRECs (3×10^4 cells/well) were seeded on a 24-well plate in M199 medium (1 mL) containing 20% fetal bovine serum, Next day, the cells were transferred to serum-free M199 medium containing 0.1-10 μg/ml. Sac060.1 (FIG. 4a) or 0.1-10 μg; mL Sac0504 (FIG. 4b). Cell viability was determined by MTF assay in the same manner as in Test Example 1.
Their ability of inhibiting apoptosis was confirmed again for HRECs.

[2] = test system: HUVECs; assay: VEGF-induced actin stress fibers in HUVECs, rhodamine phalloidin staining; type: cell-based, human; details: 10 μg/mL pretreatment 1 hour, 20 ng/mL VEGF
Experimental: Confluent HUVECs were pretreated with the compounds (10 μg/mL) for 60 minutes before treating with 20 ng/mL VEGF (1 hr). The cells were then stained with rhodamine phalloidin.
It is known that the change in the actin structure of the cytoskeleton is closely related with the permeability of vascular endothelial cells. Increased permeability of vascular endothelial cells leads to increased formation of actin stress fibers and decrease of cortical actin ring structures. Based on this, the ability of inhibiting vascular endothelial permeability of the synthesized Rk1 derivatives was screened. Confluent HUVECs were pretreated with the synthesized compounds (10 μg/mL) for 1 hour before treating with 20 ng/mL VEGF (Upstate Biotechnology). Subsequently, the cells were fixed with 4% paraformaldehyde for 20 minutes at room temperature and washed 3 times with PBS (pH 7.4). Then, the cells were permeabilized with 0.1% Triton X-100/PBS and reacted with 0.1 mg/mL rhodamine phalloidin (Molecular Probes) for 1 hour. Then, the cells were observed under a fluorescence microscope (Olympus).

[3] = test system: HRECs; assay: VEGF-induced actin stress fibers in HRECs, rhodamine phalloidin staining; type: cell-based, human; details: 10 μg/mL 1 hour, then 20 ng/mL VEGF 1 hour
Experimental: Confluent HRECs were treated with 10 μg/mL Sac0601 or Sac0504 for 1 hour and then with 20 ng/mL VEGF for 1 hour. Subsequently, the cells were fixed at room temperature for 20 minutes with 4% paraformaldehyde and washed 3 times with PBS (pH 7.4). Then, the cells were permeabilized with 0.1% Triton X-100/PBS and reacted with 0.1 mg/mL rhodamine phalloidin (Molecular Probes) for 1 hour. Then, the cells were observed under a fluorescence microscope (Olympus). […] The analysis of actin cytoskeleton was conducted also for the compounds synthesized in Synthesis Example 5. Both Sac0904 and Sac0902 exerted effects in a concentration-dependent manner on the actin cytoskeleton which is closely related with vascular permeability (FIG. 7c).

[4] = test system: diabetic mouse (DM) model; assay: Retinal vascular permeability in diabetic mouse (DM) model, FITC-dextran; type: in vivo, C57/BL6 mouse; details: streptozotocin diabetic mouse, 10 μg into the vitreous body, 24 hours
Experimental: 10 μg of Sac0601 or 10 μg of Sac0504 was injected into the vitreous body of one eye of a diabetic mouse. 24 hours after the injection, 100 μL of FITC-dextran (30 mg/mL in filtered […]) was injected into the left ventricle. Then, the retina was observed under an optical microscope (FIG. 11a) and the fluorescence intensity was quantified (FIG. 11b).
For in vivo analysis of the effect of the synthesized Rk1 derivatives on increased vascular permeability in diabetic retinopathy, a diabetic mouse (DM) model was made by injecting streptozotocin to C57/BL6 mouse. Sac 0601 or Sac 0504 (10 μg) was injected into the vitreous body of the mouse. 24 hours later, 40-kDa FITC-dextran (30 mg/mL in PBS, Sigma) was injected into the left ventricle. After waiting for about 2 minutes for circulation of the tracer, the eyes were taken out and fixed immediately in 4% PFA. Then, the retina was taken out and observed under an optical microscope.

[5] = test system: HRECs; assay: Stability of tight junctions (TJs) at cell-cell contacts in VEGF-treated HRECs, anti-occludin immunostaining; type: cell-based, human; details: 10 μg/mL 1 hour, then 20 ng/mL VEGF 1 hour
Experimental: In FIG. 8a, confluent HRECs were pretreated with Sac0601 (panel A in FIG. 8a) or Sac0504 (panel B in FIG. 8a) for 60 minutes before treating with 20 ng/ml. VEGF (1 hr). The cells were then stained with occludin antibody.
(§1) Confluent HRECs were treated with 10 μg/mL Sac0601 (FIG. 8a, panel A) or Sac0504 (FIG. 8a, panel B) for 1 hour and then with 20 ng/mL. VEGF for 1 hour. Subsequently, the cells were fixed at room temperature for 20 minutes with 4% paraformaldehyde and permeabilized with 0:1% Triton X-100/PBS. Then, the cells were incubated in PBS blocking solution containing 5% normal goat serum and 0.05% Tween-20. The cells were then reacted with anti-occludin antibody (Zymed Laboratories Inc.). The result was visualized with fluorescein-conjugated anti-mouse antibody (Vector Lab.). Also, western blotting was conducted for the cell lysate. The cell lysate was fractionated with SDS-PAGE and then transferred to polyvinyl difluoride membrane. The blocked membrane was reacted with anti-occludin antibody (Zymed Laboratories Inc.) and the immune response band was visualized with the chemiluminescence reagent obtained from Amersham Biosciences, Inc.

[6] = test system: occludin; assay: Occludin western blotting of HREC lysate; type: cell-based, human; details: HRECs, pretreatment 60 minutes, then 20 ng/mL VEGF 1 hour
Experimental: In FIG. 8b, confluent HRECs were pretreated with Sac0601 (10 μg/mL) for 60 minutes before treating with 20 ng/mL VEGF (1 hr). Then, cell lysate was subjected to western blotting using anti-occludin antibody.
as §1

[7] = test system: HRECs; assay: Permeability of HRECs on transwell filter, labelled sucrose; type: cell-based, human; details: 10 μg/mL 60 minutes, with or without 20 ng/mL VEGF
Experimental: HRECs were seeded on a transwell filter. After reaching confluency, the cells were pretreated with Sac0601 (FIG. 10a) and Sac0504 (FIG. 10b) for 60 minutes before treating with 20 ng/ml. VEGF (1 hr). The permeability of HRECs was determined by measuring radiation of […] (1 μCi/μL) diffused below the transwell using a liquid scintillation counter.
The effect of Sac0601 and Sac0504 on vascular permeability was analyzed. HRECs were seeded on a transwell filter (Corning Costar). After reaching confluency, the cells were cultured in M199 medium containing 1% FBS for 3 hours and treated with 10 μg/mL. Sac0601 (FIG. 10a) or Sac0504 (FIG. 10b) for 60 minutes, with or without pretreatment with 20 ng/mL VEGF for 60 minutes. Then, [^3H]sucrose (1 μCi [0.037 MBq.]/μL or 50 μL (0.8 μCi [0.0296 MBq])/mL, Amersham Pharmacia) were added. 30 minutes later, radiation diffused below the transwell was measured using a liquid scintillation counter (Wallac, PerkinElmer). Measurement was made at least four locations.

## CC(=O)OCC1OC(OC2CCC3(C)C(=CCC4C3CCC3(C)C4CCC3C(C)(O)CCCC(C)C)C2)C=CC1OC(C)=O (stereo not shown) [Sac0902]
[1]
  ability of inhibiting apoptosis (MTT assay): better ability of inhibiting apoptosis than Sac0601
  ability of protecting retinal vascular endothelial cells from apoptosis induced by the removal of serum (MTT): showed the ability of protecting the vascular endothelial cells from apoptosis induced by the removal of serum in a concentration-dependent manner
[2]
  cortical actin ring structure: increased the cortical actin ring structure
  formation of actin stress fibers induced by VEGF: inhibited the formation of actin stress fibers induced by VEGF
[3]
  formation of actin stress fibers induced by VEGF: inhibited the formation of actin stress fibers
  formation of cortical actin ring structures: increased the formation of cortical actin ring structures
[4]
  retinal vascular permeability induced in the DM: only limitedly

## CC(=O)OCC1OC(OC2CCC3(C)C(=CCC4C3CCC3(C)C(C(C)=CCCC(C)C)CCC43)C2)C=CC1OC(C)=O (stereo not shown) [Sac0904]
[1]
  ability of inhibiting apoptosis (MTT assay): better ability of inhibiting apoptosis than Sac0601
  ability of protecting retinal vascular endothelial cells from apoptosis induced by the removal of serum (MTT): showed the ability of protecting the vascular endothelial cells from apoptosis induced by the removal of serum in a concentration-dependent manner
[2]
  cortical actin ring structure: increased the cortical actin ring structure
  formation of actin stress fibers induced by VEGF: inhibited the formation of actin stress fibers induced by VEGF
[3]
  formation of actin stress fibers induced by VEGF: inhibited the formation of actin stress fibers
  formation of cortical actin ring structures: increased the formation of cortical actin ring structures
[4]
  retinal vascular permeability induced in the DM: very effectively

## COC(=O)CCC/C=C(\C)[C@H]1CCC2C3CC=C4C[C@@H](OC5C=C[C@H](OC(C)=O)[C@@H](COC(C)=O)O5)CC[C@]4(C)C3CC[C@@]21C (stereo partly shown) [Sac1004]
[1]
  ability of inhibiting apoptosis (MTT assay): improved ability of inhibiting apoptosis over SAC-0904
  ability of protecting retinal vascular endothelial cells from apoptosis induced by the removal of serum (MTT): showed the ability of protecting the vascular endothelial cells from apoptosis induced by the removal of serum in a concentration-dependent manner
[1]; incl. observation of cell morphologies
  ability of protecting the vascular endothelial cells: improved ability of protecting the vascular endothelial cells over SAC-0904
[2]
  cortical actin ring structure: increased the cortical actin ring structure
  formation of actin stress fibers induced by VEGF: inhibited the formation of actin stress fibers induced by VEGF
[3]
  formation of actin stress fibers induced by VEGF: inhibited the formation of actin stress fibers
  formation of cortical actin ring structures: increased the formation of cortical actin ring structures
[5]
  redistribution of TJs into the cytoplasm or destabilizing at the cell membrane induced by VEGF: could be inhibited
[6]
  occludin (western blotting): restores the activity of occludin decreased by VEGF
[7]
  permeability of the vascular endothelial cells: inhibiting permeability of the vascular endothelial cells
[4]
  retinal vascular permeability induced in the DM: very effectively

From patent US8889840B2, “Vascular leakage inhibitor” (Industry-Academic Cooperation Foundation, Yonsei University, priority 2009, dated 2014)
